Assay results reported in ChEMBL document CHEMBL4219190, “Studies on synthesis of novel pyrido[2,3-d]pyrimidine derivatives, evaluation of their antimicrobial activity and molecular docking” (Bioorg Med Chem Lett, 2018).
Calls of active or inactive are those of the source.

Tests used:
Bacillus subtilis [1] = assay: Bactericidal activity against Bacillus subtilis MTCC 121 incubated for 24 hrs followed by transfer of microbial suspension to Mueller Hinton agar plates and measured after 24 hrs post transfer; type: functional; details: MTCC 121, 24 h
Bacillus subtilis [2] = assay: Antibacterial activity against Bacillus subtilis MTCC 121 after 24 hrs by well diffusion method; type: functional; details: MTCC 121, 24 h
Staphylococcus aureus [3] = assay: Antibacterial activity against Staphylococcus aureus MTCC 96 after 24 hrs by well diffusion method; type: functional; details: MTCC 96, 24 h
Staphylococcus aureus [4] = assay: Antibacterial activity against Staphylococcus aureus MLS16 MTCC 2940 after 24 hrs by well diffusion method; type: functional; details: MLS16 MTCC 2940, 24 h
Micrococcus luteus [5] = assay: Antibacterial activity against Micrococcus luteus MTCC 2470 after 24 hrs by well diffusion method; type: functional; details: MTCC 2470, 24 h
Raoultella planticola [6] = assay: Antibacterial activity against Klebsiella planticola MTCC 530 after 24 hrs by well diffusion method; type: functional; details: MTCC 530, 24 h
Escherichia coli [7] = assay: Antibacterial activity against Escherichia coli MTCC 739 after 24 hrs by well diffusion method; type: functional; details: MTCC 739, 24 h
Pseudomonas aeruginosa [8] = assay: Antibacterial activity against Pseudomonas aeruginosa MTCC 2453 after 24 hrs by well diffusion method; type: functional; details: MTCC 2453, 24 h
Staphylococcus aureus [9] = assay: Bactericidal activity against Staphylococcus aureus MTCC 96 incubated for 24 hrs followed by transfer of microbial suspension to Mueller Hinton agar plates and measured after 24 hrs post transfer; type: functional; details: MTCC 96, 24 h
Staphylococcus aureus [10] = assay: Bactericidal activity against Staphylococcus aureus MLS16 MTCC 2940 incubated for 24 hrs followed by transfer of microbial suspension to Mueller Hinton agar plates and measured after 24 hrs post transfer; type: functional; details: MLS16 MTCC 2940, 24 h
Micrococcus luteus [11] = assay: Bactericidal activity against Micrococcus luteus MTCC 2470 incubated for 24 hrs followed by transfer of microbial suspension to Mueller Hinton agar plates and measured after 24 hrs post transfer; type: functional; details: MTCC 2470, 24 h
Raoultella planticola [12] = assay: Bactericidal activity against Klebsiella planticola MTCC 530 incubated for 24 hrs followed by transfer of microbial suspension to Mueller Hinton agar plates and measured after 24 hrs post transfer; type: functional; details: MTCC 530, 24 h
Escherichia coli [13] = assay: Bactericidal activity against Escherichia coli MTCC 739 incubated for 24 hrs followed by transfer of microbial suspension to Mueller Hinton agar plates and measured after 24 hrs post transfer; type: functional; details: MTCC 739, 24 h
Pseudomonas aeruginosa [14] = assay: Bactericidal activity against Pseudomonas aeruginosa MTCC 2453 incubated for 24 hrs followed by transfer of microbial suspension to Mueller Hinton agar plates and measured after 24 hrs post transfer; type: functional; details: MTCC 2453, 24 h
Candida albicans [15] = assay: Antifungal activity against Candida albicans MTCC 183 after 24 hrs by well diffusion method; type: functional; details: MTCC 183, 24 h
Candida albicans [16] = assay: Antifungal activity against Candida albicans MTCC 227 after 24 hrs by well diffusion method; type: functional; details: MTCC 227, 24 h
Candida albicans [17] = assay: Antifungal activity against Candida albicans MTCC 854 after 24 hrs by well diffusion method; type: functional; details: MTCC 854, 24 h
Candida albicans [18] = assay: Antifungal activity against Candida albicans MTCC 1637 after 24 hrs by well diffusion method; type: functional; details: MTCC 1637, 24 h
Candida albicans [19] = assay: Antifungal activity against Candida albicans MTCC 3018 after 24 hrs by well diffusion method; type: functional; details: MTCC 3018, 24 h
Candida albicans [20] = assay: Antifungal activity against Candida albicans MTCC 3017 after 24 hrs by well diffusion method; type: functional; details: MTCC 3017, 24 h
Candida albicans [21] = assay: Antifungal activity against Candida albicans MTCC 3958 after 24 hrs by well diffusion method; type: functional; details: MTCC 3958, 24 h
Candida albicans [22] = assay: Antifungal activity against Candida albicans MTCC 4748 after 24 hrs by well diffusion method; type: functional; details: MTCC 4748, 24 h
Candida albicans [23] = assay: Antifungal activity against Candida albicans MTCC 7315 after 24 hrs by well diffusion method; type: functional; details: MTCC 7315, 24 h
Candida parapsilosis [24] = assay: Antifungal activity against Candida parapsilosis MTCC 1744 after 24 hrs by well diffusion method; type: functional; details: MTCC 1744, 24 h
[Candida] aaseri [25] = Antifungal activity against Candida aaseri MTCC 1962 after 24 hrs by well diffusion method; type: functional; details: Yamadazyma aaseri, MTCC 1962, 24 h
Nakaseomyces glabratus [26] = assay: Antifungal activity against Candida glabrata MTCC 3019 after 24 hrs by well diffusion method; type: functional; details: MTCC 3019, 24 h
Pichia kudriavzevii [27] = assay: Antifungal activity against Candida krusei MTCC 3020 after 24 hrs by well diffusion method; type: functional
Pichia sporocuriosa [28] = assay: Antifungal activity against Issatchenkia hanoiensis MTCC 4755 after 24 hrs by well diffusion method; type: functional; details: MTCC 4755, 24 h
Candida albicans [29] = assay: Fungicidal activity against Candida albicans MTCC 183 incubated for 24 hrs followed by transfer of microbial suspension to Sabouraud dextrose agar plates and measured after 24 hrs post transfer; type: functional; details: MTCC 183, 24 h
Candida albicans [30] = assay: Fungicidal activity against Candida albicans MTCC 227 incubated for 24 hrs followed by transfer of microbial suspension to Sabouraud dextrose agar plates and measured after 24 hrs post transfer; type: functional; details: MTCC 227, 24 h
Candida albicans [31] = assay: Fungicidal activity against Candida albicans MTCC 854 incubated for 24 hrs followed by transfer of microbial suspension to Sabouraud dextrose agar plates and measured after 24 hrs post transfer; type: functional; details: MTCC 854, 24 h
Candida albicans [32] = assay: Fungicidal activity against Candida albicans MTCC 1637 incubated for 24 hrs followed by transfer of microbial suspension to Sabouraud dextrose agar plates and measured after 24 hrs post transfer; type: functional; details: MTCC 1637, 24 h
Candida albicans [33] = assay: Fungicidal activity against Candida albicans MTCC 3017 incubated for 24 hrs followed by transfer of microbial suspension to Sabouraud dextrose agar plates and measured after 24 hrs post transfer; type: functional; details: MTCC 3017, 24 h
Candida albicans [34] = assay: Fungicidal activity against Candida albicans MTCC 3018 incubated for 24 hrs followed by transfer of microbial suspension to Sabouraud dextrose agar plates and measured after 24 hrs post transfer; type: functional; details: MTCC 3018, 24 h
Candida albicans [35] = assay: Fungicidal activity against Candida albicans MTCC 3958 incubated for 24 hrs followed by transfer of microbial suspension to Sabouraud dextrose agar plates and measured after 24 hrs post transfer; type: functional; details: MTCC 3958, 24 h
Candida albicans [36] = assay: Fungicidal activity against Candida albicans MTCC 4748 incubated for 24 hrs followed by transfer of microbial suspension to Sabouraud dextrose agar plates and measured after 24 hrs post transfer; type: functional; details: MTCC 4748, 24 h
Candida albicans [37] = assay: Fungicidal activity against Candida albicans MTCC 7315 incubated for 24 hrs followed by transfer of microbial suspension to Sabouraud dextrose agar plates and measured after 24 hrs post transfer; type: functional; details: MTCC 7315, 24 h
Candida parapsilosis [38] = assay: Fungicidal activity against Candida parapsilosis MTCC 1744 incubated for 24 hrs followed by transfer of microbial suspension to Sabouraud dextrose agar plates and measured after 24 hrs post transfer; type: functional; details: Lodderomyces parapsilosis, MTCC 1744, 24 h
[Candida] aaseri [39] = Fungicidal activity against Candida aaseri MTCC 1962 incubated for 24 hrs followed by transfer of microbial suspension to Sabouraud dextrose agar plates and measured after 24 hrs post transfer; type: functional; details: Yamadazyma aaseri, MTCC 1962, 24 h
Nakaseomyces glabratus [40] = assay: Fungicidal activity against Candida glabrata MTCC 3019 incubated for 24 hrs followed by transfer of microbial suspension to Sabouraud dextrose agar plates and measured after 24 hrs post transfer; type: functional; details: MTCC 3019, 24 h
Pichia kudriavzevii [41] = assay: Fungicidal activity against Candida krusei MTCC 3020 incubated for 24 hrs followed by transfer of microbial suspension to Sabouraud dextrose agar plates and measured after 24 hrs post transfer; type: functional
Pichia sporocuriosa [42] = assay: Fungicidal activity against Issatchenkia hanoiensis MTCC 4755 incubated for 24 hrs followed by transfer of microbial suspension to Sabouraud dextrose agar plates and measured after 24 hrs post transfer; type: functional; details: MTCC 4755, 24 h
Bacillus subtilis [43] = assay: Antibiofilm activity against Bacillus subtilis MTCC 121 after 24 hrs by crystal violet staining-based assay; type: functional, organism-based; details: Bacillus subtilis, MTCC 121, 24 h; read-out: IC50
Staphylococcus aureus [44] = assay: Antibiofilm activity against Staphylococcus aureus MTCC 96 after 24 hrs by crystal violet staining-based assay; type: functional, organism-based; details: Staphylococcus aureus, MTCC 96, 24 h; read-out: IC50
Staphylococcus aureus [45] = assay: Antibiofilm activity against Staphylococcus aureus MLS16 MTCC 2940 after 24 hrs by crystal violet staining-based assay; type: functional, organism-based; details: Staphylococcus aureus, MLS16 MTCC 2940, 24 h; read-out: IC50
Pseudomonas aeruginosa [46] = assay: Antibiofilm activity against Pseudomonas aeruginosa MTCC 2453 after 24 hrs by crystal violet staining-based assay; type: functional, organism-based; details: Pseudomonas aeruginosa, MTCC 2453, 24 h; read-out: IC50
Raoultella planticola [47] = assay: Antibiofilm activity against Klebsiella planticola MTCC 530 after 24 hrs by crystal violet staining-based assay; type: functional, organism-based; details: Klebsiella planticola, MTCC 530, 24 h; read-out: IC50

COc1ccc(-c2nc(C(=O)N3CCN(C)CC3)nc3nc(-c4ccccc4)cc(C(F)(F)F)c23)cc1
3.9 mg/L: MIC (Candida albicans [15]) | MIC (Candida albicans [20])
10.8 mg/L: IC50 (Staphylococcus aureus [45]) | IC50 (Raoultella planticola [47])
2.7 mg/L: IC50 (Bacillus subtilis [43]) | IC50 (Pseudomonas aeruginosa [46])
15.6 mg/L: MBC (Bacillus subtilis [1]) | MIC (Staphylococcus aureus [4]) | MIC (Micrococcus luteus [5]) | MIC (Raoultella planticola [6]) | MIC (Escherichia coli [7]) | MBC (Staphylococcus aureus [9]) | MBC (Staphylococcus aureus [10]) | MBC (Pseudomonas aeruginosa [14]) | MIC (Candida albicans [17]) | MIC (Candida albicans [18]) | MIC (Candida parapsilosis [24]) | MIC ([Candida] aaseri [25]) | MFC (Nakaseomyces glabratus [40]) | MFC (Pichia sporocuriosa [42])
7.8 mg/L: MIC (Bacillus subtilis [2]) | MIC (Staphylococcus aureus [3]) | MIC (Pseudomonas aeruginosa [8]) | MIC (Nakaseomyces glabratus [26]) | MIC (Pichia sporocuriosa [28]) | MFC (Candida albicans [29]) | MFC (Candida albicans [33])
62.5 mg/L: MIC (Candida albicans [21]) | MIC (Candida albicans [22]) | MFC (Candida albicans [34]) | MFC (Candida albicans [35]) | MFC (Candida albicans [36]) | MFC (Candida albicans [37])
5.4 mg/L: IC50 (Staphylococcus aureus [44])
31.2 mg/L: MBC (Micrococcus luteus [11]) | MBC (Raoultella planticola [12]) | MBC (Escherichia coli [13]) | MIC (Candida albicans [16]) | MIC (Candida albicans [19]) | MIC (Candida albicans [23]) | MFC (Candida albicans [30]) | MFC (Candida albicans [31]) | MFC (Candida albicans [32]) | MFC (Candida parapsilosis [38]) | MFC ([Candida] aaseri [39])
inactive: MIC (Pichia kudriavzevii [27]) | MFC (Pichia kudriavzevii [41])
